Measurements: PubChem BioAssay (NCI)
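Five compound concentrations were applied to cells in 96-well plates for 48 hours; endpoints were derived by simple linear interpolation of the resulting dose-response curve. GI50 marks 50% less growth. At the TGI there is no net growth.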

Legend:
Experiment in all cases: inhibition of tumour cell growth, NCI panel, 48 h; in the data active = GI50 below about 0.43 µM; inactive = the rest
NCI-H226 lung = test system: NCI-H226 lung
NCI-H23 lung = test system: NCI-H23 lung
NCI-H460 lung = test system: NCI-H460 lung
NCI-H522 lung = test system: NCI-H522 lung
OVCAR-3 ovarian = test system: OVCAR-3 ovarian
OVCAR-4 ovarian = test system: OVCAR-4 ovarian
OVCAR-5 ovarian = test system: OVCAR-5 ovarian
OVCAR-8 ovarian = test system: OVCAR-8 ovarian
RPMI-8226 leukemia = test system: RPMI-8226 leukemia
RXF-631 renal = test system: RXF-631 renal
SF-268 CNS = test system: SF-268 CNS
SF-295 CNS = test system: SF-295 CNS
SF-539 CNS = test system: SF-539 CNS
SK-MEL-2 melanoma = test system: SK-MEL-2 melanoma
SK-MEL-28 melanoma = test system: SK-MEL-28 melanoma
SK-MEL-5 melanoma = test system: SK-MEL-5 melanoma
SK-OV-3 ovarian = test system: SK-OV-3 ovarian
SN12C renal = test system: SN12C renal
SNB-19 CNS = test system: SNB-19 CNS
SNB-75 CNS = test system: SNB-75 CNS
SR leukemia = test system: SR leukemia
SW-620 colon = test system: SW-620 colon
U251 CNS = test system: U251 CNS
UACC-257 melanoma = test system: UACC-257 melanoma
UACC-62 melanoma = test system: UACC-62 melanoma
UO-31 renal = test system: UO-31 renal

CC([O-])=C1C(=O)c2ccccc2C1=O.CC([O-])=C1C(=O)c2ccccc2C1=O.CC[O-].CC[O-].[Ti+4]
> 100 µM: TGI (NCI-H226 lung) | TGI (NCI-H23 lung) | TGI (NCI-H460 lung) | TGI (NCI-H522 lung) | TGI (OVCAR-3 ovarian) | TGI (OVCAR-4 ovarian) | TGI (OVCAR-5 ovarian) | TGI (OVCAR-8 ovarian) | TGI (RPMI-8226 leukemia) | TGI (RXF-631 renal) | TGI (SF-268 CNS) | TGI (SF-295 CNS) | TGI (SF-539 CNS) | TGI (SK-MEL-2 melanoma) | TGI (SK-MEL-28 melanoma) | TGI (SK-MEL-5 melanoma) | TGI (SK-OV-3 ovarian) | TGI (SN12C renal) | TGI (SNB-19 CNS) | TGI (SNB-75 CNS) | TGI (SR leukemia) | TGI (SW-620 colon) | TGI (U251 CNS) | TGI (UACC-257 melanoma) | TGI (UACC-62 melanoma) | TGI (UO-31 renal)
inactive: GI50 (NCI-H226 lung) > 100 µM | GI50 (NCI-H23 lung) > 100 µM | GI50 (NCI-H460 lung) > 100 µM | GI50 (NCI-H522 lung) > 100 µM | GI50 (OVCAR-3 ovarian) > 100 µM | GI50 (OVCAR-4 ovarian) > 100 µM | GI50 (OVCAR-5 ovarian) > 100 µM | GI50 (OVCAR-8 ovarian) > 100 µM | GI50 (RPMI-8226 leukemia) > 100 µM | GI50 (RXF-631 renal) > 100 µM | GI50 (SF-268 CNS) > 100 µM | GI50 (SF-295 CNS) > 100 µM | GI50 (SF-539 CNS) > 100 µM | GI50 (SK-MEL-2 melanoma) > 100 µM | GI50 (SK-MEL-28 melanoma) > 100 µM | GI50 (SK-MEL-5 melanoma) > 100 µM | GI50 (SK-OV-3 ovarian) > 100 µM | GI50 (SN12C renal) > 100 µM | GI50 (SNB-19 CNS) 44.1 µM | GI50 (SNB-75 CNS) > 100 µM | GI50 (SR leukemia) > 100 µM | GI50 (SW-620 colon) > 100 µM | GI50 (U251 CNS) > 100 µM | GI50 (UACC-257 melanoma) > 100 µM | GI50 (UACC-62 melanoma) > 100 µM | GI50 (UO-31 renal) > 100 µM
